Measurements reported in patent US20220235006A1, “PYRIDINE DERIVATIVES AS TMEM16A MODULATORS FOR USE IN THE TREATMENT OF RESPIRATORY CONDITIONS” (TMEM16A LIMITED, priority 2019, published 2022).
≈ marks a conversion by molar mass, not a printed value.

Assays:
[1] = Kinetic solubility determination (high throughput); type: physicochemical; settings: kinetic from dmso stock, sterile water, 5% DMSO, room temperature
Method: Test compounds (10 μL; 20 mM DMSO solution) were added to sterile water (190 μL) in triplicate and shaken at 300 rpm at room temperature. After 90 min. the test compounds were filtered by centrifuge (5 min. at 3000 rpm) to obtain the aqueous filtrate. Acetonitrile (20 μL) was dispensed into clean 96-well UV/VIS analysis plate and aqueous filtrate (80 μL) added and the plate analysed for test compound concentration using a Molecular Devices SPECTRAmax® plus microplate reader at the following wavelengths: (280, 300, 320, 340, 360, 800 nm). […] The diluted filtrate (80 μL) was then added to acetonitrile (20 μL) and the plate analysed. as previously.

[2] = target: T1, human TMEM16A (TMEM16Aabc variant) (Homo sapiens, UniProt Q5XXA6, DEL476-501); assay: Automated whole-cell patch clamp (Qpatch) TMEM16A potentiator assay in recombinant FRT cells; type: cell-based; settings: for activation at 3.33 µM: percentage increase of baseline TMEM16A current, minimum n = 2, read-out: % Potentiation @ 3.33 uM Avg; for EC50: minimum n = 2
T1 sequence (Q5XXA6 with tags, fused parts or gaps isoform Q5XXA6-5 DEL539-564): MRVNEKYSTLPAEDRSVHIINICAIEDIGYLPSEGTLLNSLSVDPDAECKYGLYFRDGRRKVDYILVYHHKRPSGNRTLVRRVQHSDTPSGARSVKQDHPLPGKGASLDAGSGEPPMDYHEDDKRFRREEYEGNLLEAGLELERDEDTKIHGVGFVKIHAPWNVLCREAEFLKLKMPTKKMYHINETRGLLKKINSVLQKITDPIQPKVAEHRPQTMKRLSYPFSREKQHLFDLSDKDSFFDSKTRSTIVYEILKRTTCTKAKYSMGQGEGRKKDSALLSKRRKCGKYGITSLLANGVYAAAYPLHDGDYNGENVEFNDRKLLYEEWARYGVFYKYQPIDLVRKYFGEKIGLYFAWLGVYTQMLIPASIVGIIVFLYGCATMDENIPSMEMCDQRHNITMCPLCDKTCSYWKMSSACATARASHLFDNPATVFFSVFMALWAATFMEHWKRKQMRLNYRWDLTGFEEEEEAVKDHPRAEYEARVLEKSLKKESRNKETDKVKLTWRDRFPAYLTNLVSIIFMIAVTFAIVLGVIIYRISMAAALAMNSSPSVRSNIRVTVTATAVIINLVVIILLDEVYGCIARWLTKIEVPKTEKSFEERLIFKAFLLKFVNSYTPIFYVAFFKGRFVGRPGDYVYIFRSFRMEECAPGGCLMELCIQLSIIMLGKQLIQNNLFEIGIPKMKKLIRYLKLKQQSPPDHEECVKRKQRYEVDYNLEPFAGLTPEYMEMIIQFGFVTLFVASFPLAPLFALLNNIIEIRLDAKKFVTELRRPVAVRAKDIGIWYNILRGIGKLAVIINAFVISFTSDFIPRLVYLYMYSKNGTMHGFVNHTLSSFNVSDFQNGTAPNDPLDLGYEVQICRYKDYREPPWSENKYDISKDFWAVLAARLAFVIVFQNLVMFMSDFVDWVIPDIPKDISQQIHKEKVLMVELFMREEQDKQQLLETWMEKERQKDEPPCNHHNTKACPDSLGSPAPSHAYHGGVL
Summary of the method: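 FRT cells stably expressing human TMEM16Aabc, whole-cell automated patch clamp with intracellular Ca2+ buffered for ~20% maximal current (EC20). Held at −70 mV, step to +70 mV/ramp at 0.05 Hz, cumulative compound additions of 5 min each. Peak +70 mV current increase expressed as % potentiation of baseline.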

[3] = Log D (pH7.4 shake flask); type: physicochemical; settings: pH 7.4; 1-octanol/phosphate buffer shake flask; read-out: mLogD (pH 7.4)
Method: Phosphate buffer (1 M) was diluted to 20 mM with deionised water and adjusted to pH 7.4 with phosphoric acid or sodium hydroxide. 1-octanol and phosphate buffer (20 mM) were saturated overnight by tumbling. The two phases were separated using a separation funnel. 5 μL of 5 mM compound cassette was added to 495 μL of octanol-saturated buffer and 495 μL buffer saturated octanol in a 96-well plate (top concentration 50 μM). Plate was shaken for 1 h and centrifuged at 25° C. for 5 min. 200 μL of each phase was transferred to a separate plate. The octanol layer was sampled first to avoid cross contamination. 5 μL of the solutions were transferred to 495 μL of quench solution* (max concentration 0.5 μM). In addition, 40 μL of buffer solution was added to 360 μL of quench solvent (max concentration 5 μM). Samples were analysed by LC-MS/MS. Benchmarking against a calibration curve for each compound and with reference to the control compounds sulpride, diclofenac, chlorpromazine and tamoxifen. *Quench solution was a 1:3:1 mixture (v/v/v) of Acetonitrile containing 0.1% formic acid and imipramine/labetalol, 200 nM:Acetonitrile:Water.

Row | solubility kinetic at 90 min [1] | activation at 3.33 µM [2] | EC50 [2] | logD [3] | SMILES
1 | 256 µg/mL (≈ 545 µM) | 250% | 57 nM | 3.7 | CC(C)(C)c1cc(Cl)c(CC(=O)Nc2ccnc(C(=O)NC3(C(F)(F)F)CC3)c2)cc1O [Example 10.1, 4-[[2-(4-tert-Butyl-2-chloro-5-hydroxy-phenyl)acetyl]amino]-N-[1-(trifluoromethyl)cyclopropyl]pyridine-2-carboxamide]
2 | 18 µg/mL (≈ 41.2 µM) | 433% | 15 nM | > 4.2 | C=C(C)c1cc(F)c(CC(=O)Nc2ccnc(C(=O)NC3(C(F)(F)F)CC3)c2)cc1O [Example 7.1, 4-[[2-(2-Fluoro-5-hydroxy-4-isopropenyl-phenyl)acetyl]amino]-N-[1-(trifluoromethyl)cyclopropyl]pyridine-2-carboxamide]
3 | 75 µg/mL (≈ 154 µM) | 280% | 18 nM | 3.6 | CC(C)(CO)c1cc(F)c(CC(=O)Nc2ccnc(C(=O)NC3(C(F)(F)F)CC3)c2)c(F)c1O [Example 16.4, 4-[[2-[2,6-Difluoro-3-hydroxy-4-(2-hydroxy-1,1-dimethyl-ethyl)phenyl]acetyl]amino]-N-[1-(trifluoromethyl)cyclopropyl]pyridine-2-carboxamide]
4 | 17 µg/mL (≈ 40 µM) | 335% | 43 nM | > 4 | CC(C)(C#N)NC(=O)c1cc(NC(=O)Cc2cc(O)c(C3(C)CCC3)cc2F)ccn1 [Example 5, N-(1-Cyano-1-methyl-ethyl)-4-[[2-[2-fluoro-5-hydroxy-4-(1-methylcyclobutyl)phenyl]acetyl]amino]pyridine-2-carboxamide]
